Molecular target: T1, Dihydrofolate reductase (Homo sapiens, UniProt P00374)
T1 sequence (P00374 whole entry): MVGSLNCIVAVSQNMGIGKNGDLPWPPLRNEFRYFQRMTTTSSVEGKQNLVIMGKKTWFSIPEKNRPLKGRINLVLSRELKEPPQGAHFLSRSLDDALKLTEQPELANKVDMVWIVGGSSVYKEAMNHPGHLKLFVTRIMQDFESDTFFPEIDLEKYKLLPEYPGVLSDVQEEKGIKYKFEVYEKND

| SMILES | IC50 [nM] |
| --- | --- |
| CCc1nc(N)nc(N)c1C#CCc1cccc(OC)c1OC | 130 |
| CCc1nc(N)nc(N)c1C#CCc1ccccc1 | 360 |

Source: ChEMBL document CHEMBL1140220, “Synthetic and crystallographic studies of a new inhibitor series targeting Bacillus anthracis dihydrofolate reductase” (J Med Chem, 2008)
